Test results from patent US20080076760A1, “2,3,4,5-TETRAHYDRO-1H-1,5-BENZODIAZEPINE DERIVATIVE AND MEDICINAL COMPOSITION” (priority 2004, published 2008).
Where a name gives a salt, the structure may show the parent alone.

Tests used:
V1a receptor = target: T1, V1a receptor (Rattus norvegicus, UniProt P30560); experiment: V1a receptor antagonism in awake rat (oral administration), inhibition of AVP-induced vasopressure; assay type: in vivo; details: for AVP vasopressure inhibition effect after 8 hours since administration: 8 hours after administration; for maximum vasopressure inhibition rate: one third of the 3 mg/kg SR49059 dose, maximum after 2 to 6 hours since administration, 30 mU/kg AVP i.v.
T1 construct: from tissue; host or cells: whole animal: awake male Sprague-Dawley rats
Procedure: One day before evaluation of test compounds, a cannula for blood pressure measurement was inserted into left carotid artery, and a cannula for arginine vasopressin (AVP) administration was inserted into left cervical vein. Blood pressure of artery cannula was measured via pressure transducer during rats were awake. During evaluation of test compounds, elevation breadth of mean blood pressure resulting from intravenous administration of 30 mU/kg of AVP was determined as a vasopressure control, in advance. After test compound was suspended in 0.5% methylcellulose solution and orally administered at 1 to 3 mg/kg, 30 mU/kg of AVP was intravenously administered at fixed time points from 0.5 to 8 hours, and vasopressure value was measured. [Vasopressure inhibition rate (%) at each measurement point after administration]=[(A−B)/A]×100 Wherein, control vasopressure=A, and vasopressure value at each measurement point=B

male ICR mice = experiment: Acute toxicity study, oral, male ICR mice; assay type: in vivo, mouse; details: single administration in 0.5% methylcellulose, observed 6 days
Procedure: Test compound suspended in 0.5% methylcellulose solution was orally administered to male ICR mice (body weight 25 to 35 g), which were separated into groups each having 5 mice, and body weight change and general symptom after 6 days since administration were observed. During the test period except for 17 to 20 hours before administration and after 2 hours since administration, mice were allowed to take feed and water ad libitum.

T1 sequence (P30560 whole entry): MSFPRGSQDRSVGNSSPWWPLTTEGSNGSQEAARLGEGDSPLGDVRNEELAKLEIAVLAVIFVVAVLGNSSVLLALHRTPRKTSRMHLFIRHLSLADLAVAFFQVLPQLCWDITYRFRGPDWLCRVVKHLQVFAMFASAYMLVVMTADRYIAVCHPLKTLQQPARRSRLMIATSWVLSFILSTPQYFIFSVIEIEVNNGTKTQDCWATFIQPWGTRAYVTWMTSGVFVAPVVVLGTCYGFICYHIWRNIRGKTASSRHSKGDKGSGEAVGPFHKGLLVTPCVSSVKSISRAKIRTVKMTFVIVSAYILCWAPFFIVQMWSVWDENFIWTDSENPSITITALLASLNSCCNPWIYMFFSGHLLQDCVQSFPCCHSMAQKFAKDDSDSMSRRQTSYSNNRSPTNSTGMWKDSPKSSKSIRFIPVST

Row | Structure (SMILES) | AVP vasopressure inhibition effect after 8 hours since administration (V1a receptor) | maximum vasopressure inhibition rate (V1a receptor) [%] | Toxicity expressing dose (male ICR mice) [mg/kg]
1 | CCCN(C)CCCCOc1cc(C(=O)N2CC[C@H](C)Nc3ccccc32)ccc1-c1ccc2[nH]ccc2c1 [117 fumarate] | significant AVP vasopressure inhibition effect | 77.7 | >300
2 | CCCCN1CCN(CCCOc2cc(C(=O)N3CC[C@H](C)Nc4ccccc43)ccc2-c2ccc3[nH]ccc3c2)CC1 [122 maleate] | significant AVP vasopressure inhibition effect | 67.3 | >300
